Experimental data reported in patent US20050090471A1, “Inhibitors of cyclin-dependent kinases, compositions and uses related thereto” (GPC Biotech, Inc, priority 2001, published 2005).
Like-named read-outs stand apart in the source and are kept apart here.

Tests used:
[1] = system: IMR90; assay: Calcein AM viability assay, IMR90; type: cell-based; settings: IMR-90, normal human fibroblast, 72-hours incubation
Procedure: (§1) The potency of Cdk inhibitors, as measured by loss of cellular viability, was determined with the Calcein AM assay (Molecular Probes). Calcein AM is a substrate of intracellular esterases, which is cleaved only in viable cells to generate a fluorescent product that can be quantified with a fluorescent plate reader. The fluorescent signal is proportional to the number of viable cells, and thus loss of signal in response to the exposure of cells to Cdk inhibitors correlates with a loss of viability. This assay distinguishes cell cycle arrest from loss of viability and is thus well suited for the evaluation of Cdk inhibitors.
(§2) Cellular IC50's were determined in the human colorectal carcinoma cell line, HCT-116, and the normal human fibroblast, IMR90. Protein adjusted IC50's were also determined in HCT-116. Results are presented in Table 3 below (HCT-116 (viability/protein adjusted) and IMR-90).
(§3) HCT-116 or IMR90 cells were recovered from sub-confluent plates by trypsinization and 1,000 or 4,000 cells, respectively, were plated in 24-well dishes and incubated overnight at 37° C., 5% CO2. HCT-116 cells were cultured in RPMI-1640, 10% FCS, and IMR90 cells were cultured in Minimum Essential Medium-alpha, 10% FCS. After overnight incubation to allow.adlierence, the media was aspirated from each well and replaced with media containing a test compound at a concentration from 0 to 250 nM, spanning a total of 7 doses. The plates were returned to the incubator and cultured for an additional 3 days. […] After 72-hours incubation with the test compound, the cells were washed twice with 1×PBS, talking special care to remove all residual buffer.
(§4) A 5 μM Calcein AM. solution was prepared by dissolving a 50 μg aliquot of Calcein (Molecular Probes catalog # C3100) in 50 μl DMSO. After the Calcein had completely dissolved (10 minutes at room temperature), it was diluted into 10 ml PBS. Calcein/PBS (0.5 ml) was added to each well. The plates were incubated for 75 minutes at 37° C. (protected from light) and the fluorescent signal was read on a fluorescent plate reader (excitation 485/20 and emission 530/25).

[2] = system: HCT-116 cells; assay: Clonogenic survival assay with HCT-116 cells; type: cell-based; settings: Homo sapiens
Procedure: This assay was used to determine the concentration of a compound that results irreversible loss of viability after a specified period of exposure.
Media (RPMI-1640, 10% FCS, pen/strep) was pre-warnied to 37° C. in a water bath. Cells were incubated and grown at 37° C., 5% CO2. Cells were recovered by trypsinization from sub-confluent plates and counted using a hemocytometer. 1×10^4 cells were plated in 25 mls of media in a 15 cm tissue culture dish. 14 plates were set up for each test compound, and were incubated overnight at 37° C. The compound was diluted into media at 7 concentrations and the media on the cells was replaced with that containing the test compound. Two plates were set up for each concentration of the compound to be tested, as well as two control plates without compound. […] Colonies were stained with crystal violet solution (0.4% crystal violet, 20 % ethanol) for 5 minutes, washed twice with distilled water, and counted.

[3] = system: HCT-116; assay: Calcein AM viability assay, HCT-116; type: cell-based, human; settings: 72-hours incubation
Procedure: as §1, §2, §3, §4

[4] = system: HCT-116 cells; assay: BrdU incorporation into DNA (flow cytometry); type: cell-based, human; set-up: unit not given here; settings: inhibition of BrdU incorporation, unit not given; for BrdU 24: analysis at 24 hours; for BrdU 48: analysis at 48 hours; for BrdU 72: analysis at 72 hours
Procedure: This method measured the percentage of cells that incorporated the nucleotide analog, BrdU, into newly synthesized DNA as cells progressed through the S phase of the cell cycle. The inhibition of BrdU incorporation was used as a measure of a Cdlc inhibitor's effect on S phase progression and DNA replication.
3 sets of HCT-116 cells (100,000 cells/set) were plated in T25 flasks and incubated with a test compound as above. Analysis was done at 24, 48, and 72 hours. BrdU was added to each T-25 flask from a stock of 10 mg/ml to a final concentration of 10 μM and the cells were incubated for an additional 16-18 hours at 37° C. The cells were then prepared for flow cytometric analysis according to manufacturer's protocol (BrdU Flow kit, BD-Pharmingen catalogue # 2354KK) as follows:
Cells were harvested (adherent and floating) from the T25 flasks directly into Falcon 12×75 flow cytometric tubes as above followed by fixation and permeabilization with the addition of 100 μl Cytofix/Cytoperm buffer (30 minutes, room temperature). The cells were then washed with 1 ml of Perm Wash buffer and the cell pellets were resuspended in 100 μl Cytoperm Plus buffer and incubated on ice for 10 minutes. The cells were then washed again with 1 ml of Perm Wash buffer and the fixation was repeated in 100 μl of Cytofix/Cyto Perm buffer for 10 minutes at room temperature. The cells were then washed with 1 ml of Perm Wash buffer. The cells were next treated for one hour at 37° C. with 100 μl DNase to expose incorporated BrdU followed by another wash step with 1 ml of Perm Wash buffer. […] Cells were protected from light and incubated at room temperature for 20-30 minutes. Following the incubation, the cells were washed with 1 ml of Perrn Wash buffer, resuspended in 300 μl of 2% FBS in PBS, and analyzed on the flow cytometer.

[5] = system: NCI panel of 60 cell lines; assay: NCI panel of human tumor cell lines (SRB assay), MG-MID; type: cell-based; settings: 48 hours incubation with compound
Source text: (§5) The evaluation of compounds at the National Cancer Institute in their panel of 60 cell lines provides a wealth of information regarding efficacy in a wide range of tumor types and genetic backgrounds. Included within this panel are cell lines derived from leukemia, melanoma and cancers of the lung, colon, brain, ovary, breast, prostate and kidney. Use of this panel provides a measure of the efficacy of compounds in cells with alterations in many genes that are associated with neoplastic transformation including p53 and Her2/Neu as well as those involved in metabolism and those which confer multi-drug resistance. The data generated in these cell lines with the protocol described below can be used to evaluate the activity of compounds.
(§6) Cells were grown in RPMI-1640 10% FCS and plated in 96 well micro-titer plates at densities ranging from 5,000 to 40,000 cells/well. The plates were incubated for 24 hours at 37° C., 5% CO2 for 24 hours. Media containing twice the desired final concentration of the compound (5 doses spanning 4 logs) was prepared and 100 μl was added to each well containing 100 μl media plus cells to yield the desired final concentration. The plates were then incubated for an additional 48 hours.
(§7) The effect of the compound on cellular viability was determined with the Sulforhodamine B (SRB) assay which measures total protein. Cells were fixed with cold TCA to a fmal concentration of 10% and incubated at 4° C. for 60 minutes. The supernatant was discarded and the plates were washed five times with water and air-dried. SRB solution at […] in 1% acetic acid was added to each well and the plates were incubated for 10 minutes at room temperature. The plates were washed five times with 1% acetic acid and air-dried. The bound stain was solubilized with 10 mM trizma base and the absorbance was read on a plate reader at […].

[6] = system: ADR-res; assay: NCI panel (SRB assay), ADR-res cell line; type: cell-based, human; settings: 48 hours incubation with compound, unit not given
Source text: as §5, §6, §7

[7] = system: arrested HCT-116 cells; assay: Arrested cell assay (serum starvation), HCT-116; type: cell-based, human; set-up: unit not given here; settings: serum-starved arrested cells; unit not given
Procedure: (§8) Cyclin-dependent kinase (Cdk) activity is required to promote the progression of cells through distinct phases of the cell division cycle. The proliferation of normal, non-transformed, cells in culture requires the presence of growth factors, the removal of which, through serum deprivation, leads to a loss of Cdlc activity and consequent exit from the cell cycle as cells enter the quiescent phase, Go.
HCT-116 cells were plated in triplicate for each compound concentration to be tested in RPMI 1640 media containing 10% fetal calf serum at a density of either 200 or 2,000 cells per well in 24 well dishes, and incubated overnight at 37° C., 5% CO2. The media from the plate containing 2,000 cells per well was removed, cells were washed once with serum free media and 1 ml of serum free media was placed on cells. Tle plates containing cells both in the presence and absence of serum were incubated for 6 additional days.
(§9) To ensure that the cells had indeed exited the cell cyde upon serum withdrawal, the percentage of BrdU positive cells, indicative of those progressing through S phase, was determined in each experiment. For the purpose of this experiment, cellular viability was evaluated simultaneously with the use of SNARF-1, a fluorescent substrate of intracellular esterases which are only active in viable cells. Together, the evaluation of BrdU incorporation and SNARF-1 cleavage by flow cytometry provided an assessment of the viability of arrested cells on a single cell basis. For this analysis, the cells were stained with SNARF-1 as follows and then prepared for determination of BrdU incorporation as described above.
(§10) HCT-116 and IMR90 cells were plated at the density described below in T25 flasks in serum-containing media (RPMI-1640 or MEM-a with 10% FCS, respectively). After 24 hours of growth, the media was removed and, after washing the cells, replaced with serum-free media. • HCT-116+FCS 5,000 cells • HCT-116−FCS 100,000 cells • IMR90+FCS 100,000 cells • IMR90−FCS 200,000 cells
(§11) The IMR90 cells were grown for an additional 3 days and the HCT-116 cells were grown for an additional 6 days before pulsing with BrdU. A 50 μg aliquot of SNARF-1 (Molecular Probes catalog #C1272) was dissolved in 50 μl DMSO at room temperature for 10 minutes and then diluted into 10 ml PBS. The SNARF-1 was further diluted 1:64,000 before 200 μl was added to each tube of cells which had been cultured in the presence or absence of serum and pulsed with BrdU for 20 hours. The cells were incubated at 37° C. for 30 minutes and then washed with 3 ml of PBS.
(§12) These cells were then fixed and prepared for the measurement of BrdU incorporation as described above. The percentage of viable (FL-2) and BrdU positive (FL-1) cells was determined on a FACScan flow cytometer.

[8] = system: arrested IMR90 cells; assay: Arrested cell assay (serum starvation), IMR90; type: cell-based, human; set-up: unit not given here; settings: serum-starved arrested cells; unit not given
Procedure: as §8
IMR90 cells were plated in triplicate for each compound concentration to be tested in MEM-α media containing 10% fetal calf serum at a density of either 2,000 or 20,000 cells per well in 24-well dishes and incubated overnight at 37° C., 5% CO2. The media was removed from the 20,000 cell-per-well dish, cells were washed once with serum-free media, and serum-fiee media was placed on cells. The plates containing cells both in the presence and absence of serum were incubated for 3 additional days.
as §9, §10, §11, §12

[9] = 24 h exposure, read-out: HCT-116 IC50 clonogenic 24 h
[10] = Homo sapiens, RPMI-1640 10% FCS, read-out: HCT-116 IC50 viability
[11] = plus 1 mg/ml alpha acidic glycoprotein and 45 mg/ml human serum albumin, read-out: HCT-116 IC50 protein adjusted

Structure (SMILES)	IC50 [1]	IC50 [2, 9]	IC50 [3, 10]	BrdU 24 [4]	BrdU 48 [4]	BrdU 72 [4]	NCI panel MG-MID [5]	NCI panel ADR-res [6]	IC50 [3, 11]	Arrested cell HCT [7]	Arrested cell IMR90 [8]	IC50 ([2]; 48 h exposure, read-out: HCT-116 IC50 clonogenic 48 h)	IC50 ([2]; 72 h exposure, read-out: HCT-116 IC50 clonogenic 72 h)
Cc1cc(-c2[nH]nc3c2C(=O)c2c(NC(=O)NN4CCN(C)CC4)cccc2-3)ccc1OCCN1CCCC1 [Compound P]	< 100 nM	< 100 nM	< 10 nM	–	–	–	–	–	–	–	–	–	–
Cc1cc(OCCN2CCCC2)ccc1-c1[nH]nc2c1C(=O)c1c(NC(=O)NN3CCN(C)CC3)cccc1-2.Cl.Cl.Cl [L]	> 100 nM	–	–	<0.1	<0.1	<0.1	>10 µM	>10	< 1000 nM	–	–	–	–
CN1CCN(NC(=O)Nc2cccc3c2C(=O)c2c-3n[nH]c2-c2ccc(OCCN3CC[C@H](O)C3)cc2)CC1.Cl.Cl.Cl [O]	< 100 nM	< 10 nM	–	<0.1	<1	<1	–	–	–	<0.1	>0.1	–	–
CC(C)c1nn(-c2c(Cl)cc(Cl)cc2Cl)c2nc(Cc3ccc(OCCN4CCOCC4)cc3)[nH]c(=O)c12.Cl [A]	< 100 nM	–	< 100 nM	–	–	<0.1	<0.1 µM	<1	–	–	–	< 100 nM	< 100 nM
CN1CCN(NC(=O)Nc2cccc3c2C(=O)c2c-3n[nH]c2-c2ccc(OCCN(CCO)CCO)cc2)CC1 [N]	> 100 nM	–	< 1000 nM	–	–	–	–	–	< 1000 nM	–	–	–	–
CC(C)c1nn(-c2c(Cl)cc(Cl)cc2Cl)c2nc(Cc3ccc(NS(=O)(=O)CCCN4CCOCC4)cc3)[nH]c(=O)c12.Cl [D]	< 10 nM	–	–	<0.1	<0.1	<0.1	–	–	–	<0.01	>1.0	–	–
CN1CCN(NC(=O)Nc2cccc3c2C(=O)c2c-3n[nH]c2-c2ccc(OCCN3CCC[C@H]3CO)cc2)CC1.Cl.Cl.Cl [M]	< 100 nM	–	–	<0.1	<0.1	<0.1	–	–	< 1000 nM	<0.1	>1.0	–	–
